In patent US20230374067A1, “NOVEL PEPTOIDS AND USE THEREOF FOR PREVENTING OR TREATING CHRONIC PAIN” (Université Clermont Auvergne, priority 2020, published 2023):
Square brackets hold non-standard residues; d marks the D form. Peptide text beside a SMILES is read from it. * marks the point of attachment. Gly(N-CH2CH2OH) = O=C(O)CNCCO; Nleu = CC(C)CNCC(=O)O; Bz = O=C(c1ccccc1)*

Assays:
[1] = test system: OIPN mice (oxaliplatin-induced neuropathy model mice); experiment: Oxaliplatin-induced acute neuropathy in mice, paw immersion test (cold hypersensitivity); format: in vivo
Method: (§1) Immersion test: The tail or paw was immersed in a water bath set at 10° C. or 46° C. until shrinkage was observed (cut-off time: 30 s). The average of two separate determinations of withdrawal latency was calculated (Janssen, Niemegeers & Dony, 1963).
Oxaliplatin-induced acute neuropathy in mice: Mice were injected intraperitoneally (i.p.) with 6 mg/kg oxaliplatin dissolved in 5% glucose directly after the first behavioral assessment. At 90 h after drug administration, corresponding to the time required to reach peak hyperalgesia (Descoeur et al., 2011), a second assessment of cold sensitivity and mechanical sensitivity was performed.

neuropathic rats = experiment: Spinal nerve ligation induced neuropathy in rats, paw immersion test; format: in vivo; conditions: neuropathy induced by traumatic nerve injury, intrathecal, 5 μg
Method: as §1
Spinal nerve ligation induced neuropathy in rats: According to the procedure of Kim and Chung (1992), rats were placed in the […] position and anesthetized with 10 mg/kg xylazine and 75 mg/kg ketamine (i.p). The fur on the left side of the spine was then shaved to expose the skin. The skin was cut parallel to the spine and the paravertebral muscles were separated. The L5 transverse apophysis was removed until the L5 spinal nerve was exposed. The L5 nerve was isolated and ligated with silk thread. Finally, the muscle and skin incisions were sutured and the wound was disinfected with iodophor and 75% ethyl alcohol. In the sham group, the rats underwent the same surgical procedure without the nerve ligation.

PTX rats = experiment: Paclitaxel-induced neuropathy in rats (mechanical thresholds, paw immersion); format: in vivo; conditions: rat model of paclitaxel-induced neuropathy, i.t., 0.2, 1 or 5 μg
Method: as §1
Paw pressure test in rats: Rats were subjected to the paw pressure test previously described by Randall and Selitto (1957). Nociceptive thresholds, expressed in grams, were measured with a Ugo Basile analgesic meter (Apelex, probe tip diameter 1 mm, weight 30 g) by applying increasing pressure to the right hind paw of the rats until a pain sign (vocalization threshold) was obtained (cut-off was 750 g). Before the treatments, the rats were habituated to the test by handling them without subjecting them to paw pressure. Then, after obtaining two consecutive stable vocalization threshold values, the treatment effects were evaluated after 15, 30, 45, 60, 90, and 120 min. Results are expressed as vocalization thresholds, in grams. […] Data were analyzed by a 2-way ANOVA followed by a Bonferroni test, when the time course of the effects was studied. A one-way ANOVA followed by a Student Newman-Keuls test was used to analyze the effect of the different treatments determined by the CSAs. The level of statistical significance was set at p<0.05. […]

mice = experiment: Rotarod test (locomotor activity); format: in vivo; conditions: administered subcutaneously (2.5, 5, or 10 mg/kg, s.c.)
Method: Rotarod Test: For the Rotarod test (Bioseb), the animals were first habituated to remain on the stationary cylinder for 10 min before switching to another 10 min with a rotational speed of 4 rpm. The animals were given the drug immediately after training and the test was performed 30 min later. The test consisted of measuring the latency to fall of the animals as the rotation increased from 4 to 40 rpm linearly over 5 min. The average of the two closest values over 3 trials was calculated.

[2] = target: T1, interaction between HCN and the TRIP8b tail (Homo sapiens, UniProt Q8IYB4); experiment: Fluorescence polarization assay, disruption of TRIP8b-HCN interaction; format: binding; conditions: compared with NUCC5953
T1 sequence (Q8IYB4 265-626 limits assumed): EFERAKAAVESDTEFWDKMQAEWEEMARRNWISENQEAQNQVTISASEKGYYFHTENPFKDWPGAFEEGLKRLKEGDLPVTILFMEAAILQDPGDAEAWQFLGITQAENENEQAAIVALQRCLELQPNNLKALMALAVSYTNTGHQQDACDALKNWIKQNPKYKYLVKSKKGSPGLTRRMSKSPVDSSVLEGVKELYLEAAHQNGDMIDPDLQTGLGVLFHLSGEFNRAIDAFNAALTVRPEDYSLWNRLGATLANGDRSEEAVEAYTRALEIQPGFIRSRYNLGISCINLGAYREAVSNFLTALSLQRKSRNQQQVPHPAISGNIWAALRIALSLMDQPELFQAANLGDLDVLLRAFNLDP
From the text: Fluorescence polarization assay: a fluorescence polarization (FP) based assay was used to identify compounds capable of disrupting the interaction between HCN and the TRIP8b tail, as published (Han et al., 2015).

| SMILES | analgesic effect ([1]; mouse, in vivo) | other results |
| --- | --- | --- |
| CC(C)C[C@H](NC(=O)CCN(CCO)C(=O)CN(CCO)C(=O)CN(CC(C)C)C(=O)c1ccc([N+](=O)[O-])cc1)C(=O)O [LF108] | demonstrated an analgesic effect |  |
| Cc1ccc(C(=O)N(CC(=O)N(CCO)CC(=O)N(CCO)CCC(=O)N[C@@H](CC(C)C)C(=O)O)CC(C)C)cc1 [LF126] | demonstrated an analgesic effect |  |
| CC(C)C[C@H](NC(=O)CCN(CC(N)=O)C(=O)CN(CCO)C(=O)CN(CC(C)C)C(=O)c1ccccc1)C(=O)O [LF176] | demonstrated an analgesic effect |  |
| CC(C)C[C@H](NC(=O)CCN(CCO)C(=O)CN(CCO)C(=O)CN(CC(C)C)C(=O)c1ccc(C(F)(F)F)cc1)C(=O)O [LF188] | demonstrated an analgesic effect |  |
| CCCCN(CC(=O)N(CCO)CC(=O)N(CCO)CCC(=O)N[C@@H](CC(C)C)C(=O)O)C(=O)c1ccccc1 [LF222] | demonstrated an analgesic effect |  |
| CC(C)C[C@H](NC(=O)CCN(CCO)C(=O)CN(CCO)C(=O)CN(Cc1ccccc1)C(=O)C(C)C)C(=O)O [LF239] | demonstrated an analgesic effect |  |
| CC(C)C[C@H](NC(=O)CCN(CCO)C(=O)CN(CCO)C(=O)CN(CC(C)C)C(=O)c1ccc(F)cc1)C(=O)O [LF261] | demonstrated an analgesic effect |  |
| CC(C)C[C@H](NC(=O)CCN(CCO)C(=O)CN(CCO)C(=O)CN(C(=O)c1ccccc1)C(C)C)C(=O)O [LF295] | demonstrated an analgesic effect |  |
| CC(C)C[C@H](NC(=O)CCN(CCO)C(=O)CN(CCO)C(=O)CN(CC(C)(C)C)C(=O)c1ccccc1)C(=O)O [LF306] | demonstrated an analgesic effect |  |
| CC(C)C[C@H](NC(=O)CCN(CCO)C(=O)CN(CCN)C(=O)CN(CC(C)C)C(=O)c1ccccc1)C(=O)O [LF329] | demonstrated an analgesic effect |  |
| CC(=O)N(CCO)CC(=O)N(CCO)CCC(=O)N[C@@H](CC(C)C)C(=O)O [LF369] |  | analgesic effect ([1]; OIPN mice, 5 μg, i.t.): demonstrated an analgesic effect |
| Cc1cccc(C(=O)N(CC(=O)N(CCO)CC(=O)N(CCO)CCC(=O)N[C@@H](CC(C)C)C(=O)O)CC(C)C)c1 [LF400] | demonstrated an analgesic effect |  |
| CC(C)C[C@H](NC(=O)CCN(CCO)C(=O)CN(CCO)C(=O)CN(Cc1ccccc1)C(=O)c1ccccc1)C(=O)O [MP208] | demonstrated an analgesic effect |  |
| CC(C)C[C@H](NC(=O)CCN(CCO)C(=O)CN(CCO)C(=O)CN(CC(C)C)C(=O)Cc1ccccc1)C(=O)O [MP341] |  | analgesic effect ([1]; OIPN mice, 10 mg/kg, s.c.): demonstrated an analgesic effect |
| CC(C)C[C@H](NC(=O)CCN(CCCO)C(=O)CN(CCO)C(=O)CN(CC(C)C)C(=O)c1ccccc1)C(=O)O [MP354] |  | analgesic effect ([1]; OIPN mice, 10 mg/kg, s.c.): demonstrated an analgesic effect |
| CC(C)C[C@H](NC(=O)CCN(CCO)C(=O)CN(CCCO)C(=O)CN(CC(C)C)C(=O)c1ccccc1)C(=O)O [MP376] |  | analgesic effect ([1]; OIPN mice, 10 mg/kg, s.c.): demonstrated an analgesic effect |
| CC(C)C[C@H](NC(=O)CN(CCO)C(=O)CN(CCO)C(=O)CN(CC(C)C)C(=O)c1ccccc1)C(=O)O [MP405] (Bz-[Nleu][Gly(N-CH2CH2OH)][Gly(N-CH2CH2OH)]L-OH) | demonstrated an analgesic effect |  |
| CC(C)C[C@H](NC(=O)CCN(CCO)C(=O)CN(CCO)C(=O)CN(CC(C)C)C(=O)c1ccccc1)C(=O)O [YC55] |  | antihyperalgesic effect (neuropathic rats): antihyperalgesic effect; dose-dependent analgesic effect (PTX rats): dose-dependent analgesic effect; alteration in locomotor activity (mice): No alteration in locomotor activity; potency in disrupting the TRIP8b-HCN interaction [2]: equal potency to NUCC5953; dose-dependent analgesic effect / reversal of oxaliplatin-induced acute cold hypersensitivity ([1]; OIPN mice, i.t., 0.2, 1, 5 μg/mouse): dose-dependent analgesic effect; dose-dependent analgesic effect ([1]; OIPN mice, s.c., 2.5, 5 or 10 mg/kg): dose-dependent analgesic effect |
